Data from US11001562B2, “Near-infrared fluorescent nerve contrast agents and methods of use thereof” (Beth Israel Deaconess Medical Center, priority 2013, dated 2021).
Entries after “also recorded” stand apart in the source; their conditions may differ.

Experiments:
[1] = tested on: rat brachial plexus and sciatic nerves; assay: In vivo nerve-specificity screening with FLARE imaging; settings: for nerve-specific fluorescence signal in vivo: SD rats, 2 mg/kg (1 μmol) iv, 4 h after injection, brachial plexus and sciatic nerve
Text: The dual-NIR channel FLARE^a imaging system has been described in detail previously (26-28). In this study, a 670 nm excitation was used at a fluence rate of 4 mW/cm^2, with white light (400-650 nm) at 40,000 1×. Color and NIR fluorescence images were acquired simultaneously with custom software at rates up to 15 Hz over a 15 cm diameter field of view. A pseudo-colored lime green was used for NIR fluorescence in the color-NIR merged images. The imaging system was positioned at a distance of 18 inches from the surgical field.
Initial in vivo screening occurred in rats based on our previous study of BMB (Supplementary Methods) (25). For kinetic and dose-response studies, 50-400 nmol (0.8-6.3 mg/kg) of Oxazine 4 was injected intravenously into mice and measurements taken over 24 h. Control images were acquired prior to injecting NIR fluorophores. The fluorescence signal in nervous tissues and signal-to-background ratio (SBR) compared to neighboring muscle (Mu) were obtained over the period of imaging. For the large animal study, the optimal dose found in mice (200-400 nmol per mouse) was used in pigs by scaling to body surface area (29, 30).
Sprague-Dawley (SD) male rats weighing 250-300 g were purchased from Charles River Laboratories (Wilmington, Mass.). BMB, Oxazine 1, Oxazine 4, Oxazine 170, Oxazine 750, and Rhodamine 800 were initially screened to investigate nerve specificity in rats. For the initial screening, we administered a relatively high dose (2 mg/kg; 1 μmol) of each fluorophore intravenously. 4 h after injection, brachial plexus (BP) and sciatic nerve (SN) were imaged using the intraoperative FLARE^a system for in vivo nerve-specific fluorophores screening.

[2] = Optical property measurements (absorbance and fluorescence spectra); format: physicochemical; settings: 100% FBS with 50 mM HEPES, pH 7.4, 37° C.
Procedure: Absorbance and fluorescence spectra were obtained at a concentration of […] in 100% FBS supplemented with 50 mM HEPES, pH 7.4. B) Optical properties of Oxazine 4 were measured in PBS (pH 7.4), FBS (pH 7.4), MeOH, and DMSO.
Oxazine derivatives were obtained from Fisher Scientific Inc. (Pittsburgh, Pa.) or Sigma-Aldrich (Saint Louis, Mo.), and BMB was synthesized as described previously (25). Optical measurements were performed at 37° C. in phosphate-buffered saline (PBS), pH 7.4 or 100% fetal bovine serum (FBS) buffered with 50 mM HEPES, pH 7.4. Absorbance and fluorescence emission spectra were measured using fiber optic HR2000 absorbance (200-1100 nm) and USB2000FL fluorescence (350-1000 nm) spectrometers (Ocean Optics, Dunedin, Fla.). NIR excitation was provided by a 532 nm green laser pointer (Opcom Inc., Xiamen, China) set to 5 mW and coupled through a […] core diameter, NA 0.22 fiber (Fiberguide Industries, Stirling, N.J.). In silico calculation of the partition coefficient (log D at pH 7.4) was calculated using Marvin and J Chem calculator plugins (ChemAxon, Budapest, Hungary). Chemical similarities were calculated by Instant J Chem 6.04 using “Chemical Hashed Fingerprint” with the Normalized Euclidean dissimilarity screening configuration (ChemAxon).
All optical measurements were performed at 37° C. in phosphate-buffered saline (PBS), pH 7.4, 100% fetal bovine serum (FBS) buffered with 50 mM HEPES, pH 7.4, methanol (MeOH), or dimethyl sulfoxide (DMSO). Absorbance and fluorescence emission spectra of the series of NIR fluorophores were measured using fiber optic HR2000 absorbance (200-1100 nm) and USB2000FL fluorescence (350-1000 nm) spectrometers (Ocean Optics, Dunedin, Fla.). Excitation light was provided by a 532 nm green laser pointer (Opcom Inc., Xiamen, China) set to 5 mW and coupled through a 300 μm core diameter, NA 0.22 fiber (Fiberguide Industries, Stirling, N.J.). In silico calculation of the partition coefficient (log D at pH 7.4) was calculated using Marvin and J Chem calculator plugins (ChemAxon, Budapest, Hungary).

[3] = tested on: pig sciatic nerve tissue cross sections; assay: Ex vivo nerve-specific fluorophore screening on nerve tissue sections; settings: for nerve-specific fluorescence signal in cross-sectioned nerve: 20 min incubation; for adipose uptake: both ex vivo and in vivo
Procedure: Phase contrast image (top) and fluorescence image (bottom) of nerve tissue sections incubated with 100 μM of test fluorophores are shown. Nerve-specific fluorescence intensity was determined using staining of pig sciatic nerve cut in cross section. Nerve tissue sections were incubated in 30% FBS solutions without (negative control, autofluorescence only) and with each fluorophore. As a positive control, previously reported nerve-specific BMB was used. Shown are phase contrast image (top) and fluorescence image (bottom) of nerve tissue sections incubated with 100 μM of each fluorophore. The control autofluorescence images were taken with equivalent exposure time and normalization. Arrowheads indicate fluorescence signals in nerve bundles. Ad=adipose tissue. Scale bars=200 μm. The SBR of each nerve relative to the neighboring adipose tissue was quantified and labeled as—, SBR<1; +, SBR=1−2; and ++, SBR >2.
Sciatic nerves from female Yorkshire pigs were harvested, fixed in 2% paraformaldehyde (PFA), and flash frozen in optimal cutting temperature (OCT) compound using liquid nitrogen. Nerve tissues were cut in cross section using a cryostat at […] thickness onto positively charge glass slides. Tissue sections were washed once with phosphate buffered saline (PBS) for 2 min to remove residual OCT. The tissue was then fixed to the slide with 2% PFA for 15 min, followed by washing with PBS (3×5 min). A formulation was previously developed for intravenous (IV) administration and was used in the current study to incubate the fluorophores with the nerve tissue (25). All fluorophores were mixed from the 100 mM stock solution into the IV formulation at 100 µM and incubated with the washed nerve tissue sections at room temperature for 20 min. Additional IV formulation not containing fluorophore was mixed and used to wash each nerve section twice (5 min per wash) following incubation with the formulated fluorophore. The nerve section was then washed an additional 2 times with PBS (5 min per each), after which coverslips were mounted using Fluoromount-G (Southern Biotech, Birmingham, Ala.).
NIR fluorescence microscopy for ex vivo nerve tissue slides was performed on a Nikon Eclipse TE300 microscope system as previously described (12, 19, 25). The microscope was equipped with a 100 W mercury light source, NIR-compatible optics, and a NIR-compatible 10× Plan Fluor objective lens and a 100× Plan Apo oil immersion objective lens (Nikon, Melville, N.Y.). Images were acquired on an Orca-AG (Hamamatsu, Bridgewater, N.J.). Image acquisition and analysis was performed using IPLab software (Scanalytics, Fairfax, Va.). A custom filter set (Chroma Technology Corporation, Brattleboro, Vt.) composed of a 650±22 nm excitation filter, a 675 nm dichroic mirror, and an 710±25 nm emission filter were used to detect Oxazine derivatives and Rhodamine 800 signals in the nerve tissue slides. For BMB, a mercury light source was passed through a 360±25 nm BP excitation filter, a 400 nm LP beam splitter, and a 550±50 nm emission filter.

[4] = 100 μM fluorophore, pig sciatic nerve sections
[5] = comparison of structures in discussion

Compound | nerve-specific fluorescence signal in vivo [1] | Abs (peak absorbance) [2] [nm] | Em (peak emission) [2] [nm] | λ (extinction coefficient) [2] | nerve-specific fluorescence signal in cross-sectioned nerve [3, 4] | SBR of nerve relative to neighboring adipose tissue [3, 4] | adipose fluorescence signal [3, 4] | adipose signal (discussion summary) [1, 5] | nerve signal (discussion summary) [1, 5] | adipose uptake [3] | uptake in / targeting of nerve ([1]; summary statement related to log D)
COc1cc(/C=C/c2ccc(N)cc2)ccc1/C=C/c1ccc(N)cc1 [BMB, reference compound] | nerve highlighting fluorophores | 397 | 498 | 52,800 M^−1cm^−1 | relatively high fluorescence signal in the nerve | < 1 | even higher than the target signal |  |  |  | 
CCN(CC)c1ccc2nc3ccc(=[N+](CC)CC)cc-3oc2c1 [Oxazine 1] | weak signal in the vicinity of nerve | 655 | 670 | 196,000 M^−1cm^−1 | did not show any nerve-specific fluorescence signal |  | adipose-specific fluorescence signal only | high adipose | low nerve signal |  | 
CC/N=c1/cc2oc3cc(NCC)c(C)cc3nc-2c2ccccc12 [Oxazine 170] | nerve highlighting fluorophores | 625 | 650 | 69,000 M^−1cm^−1 | weak nerve-specific fluorescence signal |  |  |  |  | strong adipose uptake; also recorded: high accumulation in adipose tissue | 
CC/N=c1/cc2oc3c4c5c(cc3nc-2c2ccccc12)CCCN5CCC4 [Oxazine 750] |  | 676 | 684 | 44,000 M^−1cm^−1 | strong fluorescence signal throughout the cross-sectioned nerve |  |  |  |  | strong adipose uptake | 
N#CC1=c2cc3c4c(c2Oc2c1cc1c5c2CCCN5CCC1)CCC[N+]=4CCC3 [Rhodamine 800] |  | 697 | 710 | 68,000 M^−1cm^−1 | strong fluorescence signal throughout the cross-sectioned nerve |  |  |  |  |  | low and low targeting affinity to the nerve
